The test deals with human recombinant DGK ξ (Homo sapiens (Human), UniProt Q13574). As to the kind of experiment: Evaluation of DGK ξ inhibitory effect (ADP-Glo Kinase Assay). Format: biochemical. The conditions noted are these: ADP-Glo luminescence. Here is the method:
Test Example 1. Evaluation of DGK ξ Inhibitory Effect
The inhibitory effect of a test compound on human recombinant DGK ξ (Cama Biosciences, Inc., 12-410-20N) was examined by the following method in which detection is performed with ADP-Glo™ Kinase Assay (Promega Corporation).
To a 384-well plate (Greiner Bio-One Co., Ltd.), 3 μL of a DGK ξ enzyme dissolved in an assay buffer (40 mM Tris-HCl pH 7.5, 10 mM MgCl2, 1 mM dithiothreitol (DTT) and 0.1 mg/mL bovine serum albumin (BSA)) (90 ng/mL) was added, and 3 μL of the test compound diluted with the same assay buffer was added so that an intended final concentration was obtained. The mixture was left standing at room temperature for 15 minutes, 3 μL of a substrate (150 μM 1-oleoyl-2-acetyl-sn-glycerol (Sigma-Aldrich Co. LLC), 480 μM phosphatidylserine (Avanti, Inc.) and 150 μM UltraPure-ATP (attached to ADP-Glo)) was then added, and the mixture was left standing at room temperature for 30 minutes to react. Thereafter, 3 μL of an ADP-Glo Reagent was added, and the mixture was left standing at room temperature for 40 minutes to stop the enzyme reaction. Further, 6 μL of a Kinase-Detection Reagent was added, the mixture was left standing at room temperature for 30 minutes, and the luminescence was then measured using ARVO X3 (PerkinElmer, Inc.). The half maximal inhibitory concentration (IC50) was calculated by Sigmoid-Emax model non-linear regression analysis, where the signal value in solvent treatment was set to 0% inhibition and the signal value without addition of the DGK ξ enzyme was set to 100% inhibition. […] In the table. Ex represents the number of each Example described below.
For orientation: ADP-Glo turns the ADP formed in a reaction into a luminescent signal.
Chain of human recombinant DGK ξ (Q13574 whole entry): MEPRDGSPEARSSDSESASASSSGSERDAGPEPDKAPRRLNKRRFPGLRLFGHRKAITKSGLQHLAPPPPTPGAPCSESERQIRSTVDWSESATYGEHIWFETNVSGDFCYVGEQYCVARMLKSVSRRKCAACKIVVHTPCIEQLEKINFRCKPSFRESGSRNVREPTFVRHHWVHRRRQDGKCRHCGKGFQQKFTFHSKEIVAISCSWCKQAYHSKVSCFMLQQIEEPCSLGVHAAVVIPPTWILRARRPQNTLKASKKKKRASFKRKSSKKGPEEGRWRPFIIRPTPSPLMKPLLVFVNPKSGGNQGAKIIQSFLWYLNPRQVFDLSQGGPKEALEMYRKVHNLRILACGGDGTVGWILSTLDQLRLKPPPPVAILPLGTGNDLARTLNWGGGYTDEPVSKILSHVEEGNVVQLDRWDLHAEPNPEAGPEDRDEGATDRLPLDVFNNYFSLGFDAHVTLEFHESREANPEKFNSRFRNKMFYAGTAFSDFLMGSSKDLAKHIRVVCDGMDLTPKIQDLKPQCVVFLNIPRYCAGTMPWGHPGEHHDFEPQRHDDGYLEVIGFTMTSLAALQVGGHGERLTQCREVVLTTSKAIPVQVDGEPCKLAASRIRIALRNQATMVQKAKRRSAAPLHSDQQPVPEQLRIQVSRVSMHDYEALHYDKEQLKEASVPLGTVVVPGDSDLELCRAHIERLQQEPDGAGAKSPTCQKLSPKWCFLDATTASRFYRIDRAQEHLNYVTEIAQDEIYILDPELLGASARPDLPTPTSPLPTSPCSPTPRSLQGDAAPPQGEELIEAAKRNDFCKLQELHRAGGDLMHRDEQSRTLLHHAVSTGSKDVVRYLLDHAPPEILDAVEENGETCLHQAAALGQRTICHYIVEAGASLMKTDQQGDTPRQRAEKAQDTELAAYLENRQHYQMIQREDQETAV
The IC50 is the midpoint of a concentration-inhibition curve. With `CN1CCN(c2c(NC(=O)c3cccn(CC(F)F)c3=O)ccc(Oc3ccccc3Cl)c2C(F)(F)F)C[C@@H]1CN` [Example 15], the IC50 is 0.099 µM. In the case of `N[C@@H]1CCN2CCN(c3c(NC(=O)c4coc(-c5ccnnc5)n4)ccc(OC4CC4)c3C(F)(F)F)C[C@@H]12` [Example 81], the IC50 turned out to be 0.11 µM. For `NC[C@@H]1CCCN(c2c(NC(=O)c3ccn(CC(F)F)n3)ccc(OC3CCCC3)c2C(F)(F)F)C1` [Example 4], the IC50 was 0.17 µM. Turning to `CNC[C@H]1CN(c2c(NC(=O)c3ccn(-c4ccnnc4)n3)ccc(Oc3ccccc3F)c2C(F)(F)F)CCN1C` [Example 122, N-[4-(2-fluorophenoxy)-2-{(3S)-4-methyl-3-[(methylamino)methyl]piperazin1-yl}-3-(trifluoromethyl)phenyl]-1-(pyridazin-4-yl)-1H-pyrazole-3-carboxamide monobutanedioate], the IC50 is 0.0032 µM. For `CN[C@H]1CCN2CCN(c3c(NC(=O)c4ccn(-c5ccnnc5)n4)ccc(Oc4ccccc4F)c3C(F)(F)F)C[C@H]12` [Example 85], the IC50 is 0.0052 µM. As for `N[C@@H]1CCN2CCN(c3c(NC(=O)c4ccn(-c5ccnnc5)n4)ccc(Oc4ccccc4F)c3C(F)(F)F)C[C@@H]12` [Example 77], the IC50 was determined as 0.0056 µM. On to `CNC[C@@H]1CN(c2c(NC(=O)c3ccn(-c4ccnnc4)n3)ccc(Oc3ccccc3Cl)c2C(F)(F)F)CCN1C` [Example 95], for which the IC50 came to 0.0038 µM. With `CNC[C@H]1CN(c2c(NC(=O)c3ccn(-c4ccnnc4)n3)ccc(C3=CCOCC3)c2C(F)(F)F)CCN1C` [Example 50] the figure was 0.055 µM. As for `CNC[C@H]1CN(c2c(NC(=O)c3ccn(-c4ccnnc4)n3)ccc(Oc3ccccc3F)c2C2CC2)CCN1C` [Example 104], the IC50 stood at 0.037 µM.

On to `NC[C@@H]1CCCN(c2c(NC(=O)c3coc(-c4ccnnc4)n3)ccc(-c3ccccc3F)c2C(F)(F)F)C1` [Example 42], for which the IC50 was 0.15 µM.

`CN1CCN(c2c(NC(=O)c3ccn(-c4ccnnc4)n3)ccc(OC3CCC3)c2C(F)(F)F)C[C@@H]1CN` [Example 51]: the IC50 turned out to be 0.017 µM.

Turning to `N[C@@H]1CCN2CCN(c3c(NC(=O)c4ccn(-c5ccnnc5)n4)ccc(OC4CC4)c3C(F)(F)F)C[C@@H]12` [Example 82], the IC50 was 0.031 µM. For the compound `CN1CCN(c2c(NC(=O)c3ccn(-c4ccnnc4)n3)ccc(Oc3ccccc3F)c2C(F)(F)F)C[C@H]1CN` [Example 54], the IC50 came out at 0.012 µM. Next, `CN(C)[C@@H]1CCN2CCN(c3c(NC(=O)c4ccn(-c5ccnnc5)n4)ccc(Oc4ccccc4F)c3C(F)(F)F)C[C@@H]12` [Example 118]: 0.0014 µM; `NC[C@@H]1CCCN(c2c(NC(=O)c3ccn(CC(F)F)n3)ccc(Oc3ccccc3Cl)c2C(F)(F)F)C1` [Example 9]: 0.0093 µM; `CN[C@@H]1CCN2CCN(c3c(NC(=O)c4ccn(-c5ccnnc5)n4)ccc(Oc4ccccc4F)c3C(F)(F)F)C[C@@H]12` [Example 78]: 0.0013 µM. With `NCCOc1cccc(-c2c(NC(=O)c3coc(-c4ccnnc4)n3)ccc(OC3CC3)c2C(F)(F)F)c1` [Example 65], the IC50 was 0.022 µM. With `Cc1cc(C(F)(F)F)n2nc(C(=O)Nc3ccc(Oc4ccccc4)c(C(F)(F)F)c3N3CCC[C@@H](CN)C3)cc2n1` [Example 111] the figure was 0.28 µM. `CN1CCN(c2c(NC(=O)c3ccn(-c4ccnnc4)n3)ccc(Oc3ccccc3Cl)c2Cl)C[C@@H]1CN` [Example 56]: the IC50 worked out at 0.00089 µM.

Take `CN1CCN(c2c(NC(=O)c3ccn(CC(F)F)n3)ccc(Oc3ccc(F)cc3F)c2C(F)(F)F)C[C@@H]1CN` [Example 18]: the IC50 is 0.13 µM. Take `CN(C)CCOc1cccc(-c2c(NC(=O)c3coc(-c4ccnnc4)n3)ccc(OC3CC3)c2C(F)(F)F)c1` [Example 114]: the IC50 came to 0.037 µM. Take `NC[C@@H]1CCCN(c2c(NC(=O)c3ccn(CC(F)F)n3)ccc(Oc3ccccc3F)c2F)C1` [Example 6]: the IC50 came out at 0.057 µM.

These data come from patent publication US20240043403A1, “HETEROARYL CARBOXAMIDE COMPOUND” (Astellas Pharma Inc., priority 2020, published 2024).
